Assays:
[1] = Percentage weight change in antipsychotic-treated schizophrenia patients; format: in vivo, human; details: Sample B (N = 56), SCZ patients of European ancestry receiving clozapine; study duration 6.00 ± 0.00 weeks; mean ± SD
Protocol: In total, 160 participants with psychotic symptoms were included in this study. Diagnosis for schizophrenia (SCZ) was assessed by the Structured Diagnostic Interviews for DSM-IIIR and/or DSM-IV diagnoses (SCID-I,^31,32), except for sample A where diagnoses were based on an interview assessing both DSM and ICD diagnoses. The inclusion criteria for adult probands were DSM-IIIR/IV diagnosis of SCZ or schizoaffective disorder, with psychotic symptoms. A written informed consent was obtained after the complete study description was given to each participant, and the study has been approved by the Research Ethics Board.
Sample A (N=93) was collected at the Charité University Medicine, Berlin, Germany. […] Clozapine serum levels were monitored during the course of the treatment to ascertain compliance. Clinical response was assessed after 6 weeks using the Brief Psychiatric Rating Scale (BPRS)^35. […]
Statistical analyses of demographic variables, which included sex, age at recruitment, and duration of treatment, were performed across samples using Fisher's Exact tests, analysis of variance, or Kruskal-Wallis tests (Table 1). […] We also analyzed the ‘percent weight change’ variable in a meta-analytic approach to take into account heterogeneity across the three patient sample groups using STATA version 8 (e.g.,^48). […] Linkage disequilibrium and r^2 between marker pairs as determined by Haploview 4.1^49. […]

[2] = patients treated with second-generation antipsychotics; cited from earlier work
[3] = administered into the parabrachial nucleus in the brainstem; cited from earlier work

Row | SMILES | food intake [3] | further results
1 | CN1CCN(C2=Nc3cc(Cl)ccc3Nc3ccccc32)CC1 [clozapine] | – | Percentage weight change [1]: 3.88 ± 5.770
2 | Cc1cc2c(s1)Nc1ccccc1N=C2N1CCN(C)CC1 [olanzapine] | – | treated patients experiencing significant weight gain [2]: about 30%
3 | Cn1ncnc1COc1nn2c(-c3cc(F)ccc3F)nnc2cc1C(C)(C)C [L-838417] | increased food intake | –
4 | Cc1ncc2n1-c1ccc(Cl)cc1C(c1ccccc1F)=NC2 [midazolam] | increased food intake | –

— patent publication US20160237499A1, “Genetic Markers for Antipsychotic Induced Weight Gain and Methods for Use Thereof” (CENTRE FOR ADDICTION AND MENTAL HEALTH, priority 2013, published 2016)
